Source: US20260176270A1 (Exelixis, Inc., priority 2022, published 2026)
pIC50: −log10 of the molar value. Like-named read-outs stand apart in the source and are kept apart here.

Experiments:
PKMYT1 = target: T1, PKMYT1 (Homo sapiens, UniProt Q99640); assay: ADP-Glo PKMYT1 ATP-depletion assay; conditions: 50 nM PKMYT1, 13.3 nM CDK1, read-out: Biochemical IC50
T1 construct: PKMYT1 (93 kD, full length, N-terminal GST tag from Signal Chem); GST (N); purchased Signal Chem
T1 sequence (Q99640 1-499): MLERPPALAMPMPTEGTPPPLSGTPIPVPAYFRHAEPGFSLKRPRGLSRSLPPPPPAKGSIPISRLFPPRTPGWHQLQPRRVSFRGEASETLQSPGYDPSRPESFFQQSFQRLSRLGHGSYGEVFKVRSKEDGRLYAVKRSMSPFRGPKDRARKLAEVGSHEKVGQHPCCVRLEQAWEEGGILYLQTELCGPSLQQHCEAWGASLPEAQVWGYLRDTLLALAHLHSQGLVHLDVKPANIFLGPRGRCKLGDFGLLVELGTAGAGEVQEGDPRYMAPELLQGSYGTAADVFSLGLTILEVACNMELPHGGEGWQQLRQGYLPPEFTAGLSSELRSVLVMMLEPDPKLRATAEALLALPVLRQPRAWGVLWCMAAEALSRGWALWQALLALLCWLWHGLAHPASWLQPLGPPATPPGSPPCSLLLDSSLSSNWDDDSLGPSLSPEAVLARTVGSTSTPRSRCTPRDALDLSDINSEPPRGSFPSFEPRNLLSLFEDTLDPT
Procedure, shortened: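 Full-length N-terminal GST-tagged PKMYT1 (50 nM) with GST-CDK1 (13.3 nM) as substrate and 88 µM ATP, in Hepes buffer with MgCl2, MnCl2, DTT and BSA; DMSO <1%. Incubated 120 min at RT. ADP formed was quantified by ADP-Glo luminescence and used to derive biochemical IC50.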

[1] = tested on: phosphorylation of CDK1 at Thr14 in HCC1806 cells; assay: Cell lysate AlphaLISA assay measuring inhibition of phosphorylation of CDK1 Thr14; assay type: cell-based; conditions: read-out: Cellular IC50
Procedure, shortened: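 HCC1806 cells seeded overnight, then treated 4 h at 37 °C, 5% CO2 with compounds in DMSO; washed and lysed, lysates frozen overnight at −80 °C. CDK1 Thr14 phosphorylation read by AlphaLISA SureFire Ultra; data normalized to DMSO (0% inhibition) and 3 μM reference compound to give IC50.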

Row | pIC50 (PKMYT1) | pIC50 ([1]; Homo sapiens, HCC1806, 4 h) | pIC50 ([1]; 4 hours) | SMILES
1 | ≤ 5.30 | ≤ 5.30 |  | Cc1cccc(C)c1-c1c(N)c(C(N)=O)cc2nccnc12 [Compound 308]
2 | 5.30 to 6.00 | ≤ 5.30 |  | NC(=O)c1nc2cccnc2c(-c2cnn3c2CCCC3)c1N [Compound 322]
3 | 5.30 to 6.00 | 5.30 to 6.00 |  | Cc1c(O)cccc1-c1c(N)c(C(N)=O)nc2cc(Cl)ccc12 [Compound 37, 3-Amino-7-chloro-4-(3-hydroxy-2-methylphenyl)quinoline-2-carboxamide]
4 | 5.30 to 6.00 |  | ≤ 5.30 | Cc1ccc(O)c(C)c1-c1c(N)c(C(N)=O)nc2c(C)cccc12 (single isomer, unassigned) [Compound 33]
5 | > 7.30 |  | 6.30 to 7.30 | Cc1c(O)cccc1-c1c(N)c(C(N)=O)cc2ncc(C(F)(F)F)nc12 [Compound 139]
6 | ≤ 5.30 |  | ≤ 5.30 | NC(=O)c1nc2c(c(-c3cc(O)cnc3F)c1N)NCCC2 (atropisomer, axis not shown) [Compound 296]
7 | ≤ 5.30 | ≤ 5.30 |  | Cn1ccc(-c2cc(C(N)=O)cc3nccnc23)cc1=O [Compound 132]
8 | > 7.30 | 6.30 to 7.30 |  | Cc1ccc(O)c(C)c1-c1c(N)c(C(N)=O)nc2nccnc12 [Compound 126, 7-amino-8-(3-hydroxy-2,6-dimethylphenyl)pyrido[2,3-b]pyrazine-6-carboxamide]
9 | ≤ 5.30 |  | ≤ 5.30 | Cc1ccc(O)c(C)c1-c1c(N)c(C(N)=O)nc2c(F)cccc12 (single isomer, unassigned) [Compound 39, (P)-3-amino-8-fluoro-4-(3-hydroxy-2,6-dimethylphenyl)quinoline-2-carboxamide]
10 | 5.30 to 6.00 | ≤ 5.30 |  | COc1cnc(F)c(-c2c(N)c(C(N)=O)nc3cccnc23)c1 [Compound 229]
11 | ≤ 5.30 | ≤ 5.30 |  | NC(=O)c1cc2nccnc2c(-c2cc(O)ccc2C(F)(F)F)c1N [Compound 215]
12 | 6.30 to 7.30 |  | 5.30 to 6.00 | Cc1c(O)cccc1-c1c(N)c(C(N)=O)cc2nc(C)c(=O)n(C)c12 (atropisomer, axis not shown) [Compound 171]
13 | ≤ 5.30 |  | ≤ 5.30 | Cc1ccc2[nH]ncc2c1-c1c(N)c(C(N)=O)nc2cccnc12 (single isomer, unassigned) [Compound 8, (M)-3-amino-4-(5-methyl-1H-indazol-4-yl)-1,5-naphthyridine-2-carboxamide]
14 | 6.30 to 7.30 | 6.30 to 7.30 |  | Cc1ccc(O)c(C)c1-c1c(N)c(C(N)=O)cc2nc(C(F)(F)F)cnc12 [Compound 101, 7-Amino-8-(3-hydroxy-2,6-dimethylphenyl)-3-(trifluoromethyl)quinoxaline-6-carboxamide]
15 | 6.30 to 7.30 | 5.30 to 6.00 |  | Cc1ccc2[nH]ncc2c1-c1c(N)c(C(N)=O)cc2nccnc12 [Compound 77, 7-Amino-8-(5-methyl-1H-indazol-4-yl)quinoxaline-6-carboxamide]
16 | > 7.30 |  | > 7.30 | Cc1cnc2c(-c3c(C)ccc(O)c3C)c(N)c(C(N)=O)cc2n1 (atropisomer, axis not shown) [Compound 222]
17 | 6.30 to 7.30 | 5.30 to 6.00 |  | NC(=O)c1nc2cccnc2c(-c2cc(F)cc3[nH]ncc23)c1N [Compound 203]
18 | ≤ 5.30 | 6.00 to 6.30 |  | NC(=O)c1nc2cccnc2c(-c2cccc3c2CCN3)c1N [Compound 160]
19 | 5.30 to 6.00 | ≤ 5.30 |  | Cc1ccc(O)c(C)c1-c1c(N)c(C#N)cc2nccnc12 [Compound 298]
20 | 5.30 to 6.00 | ≤ 5.30 |  | Cc1ncncc1-c1c(N)c(C(N)=O)nc2cccnc12 [Compound 232]
21 | ≤ 5.30 | ≤ 5.30 |  | Cc1ccc2[nH]ncc2c1-c1cc(C(N)=O)cc2nccnc12 [Compound 70, 8-(5-Methyl-1H-indazol-4-yl)quinoxaline-6-carboxamide]
22 | > 7.30 | 6.30 to 7.30 |  | Cc1c(O)cccc1-c1c(N)c(C(N)=O)nc2nccnc12 [Compound 11, 7-Amino-8-(3-hydroxy-2-methylphenyl)pyrido[2,3-b]pyrazine-6-carboxamide]
23 | 6.30 to 7.30 |  | 5.30 to 6.00 | Cc1c(O)cccc1-c1c(N)c(C(N)=O)cc2nc(C(F)(F)F)c(O)nc12 (atropisomer, axis not shown) [Compound 135]
24 | ≤ 5.30 | ≤ 5.30 |  | COc1cccc(-c2cc(C(N)=O)nc3c(C)ccc(C)c23)c1C [Compound 134]

Row | pIC50 (PKMYT1) | pIC50 ([1]; Homo sapiens, HCC1806, 4 h) | pIC50 ([1]; 4 hours) | SMILES
25 | 6.30 to 7.30 | 6.00 to 6.30 |  | Cc1c(O)cccc1-c1c(N)c(C(N)=O)nc2cccc(F)c12 [Compound 56, 3-Amino-5-fluoro-4-(3-hydroxy-2-methyl-phenyl)quinoline-2-carboxamide]
26 | ≤ 5.30 |  | ≤ 5.30 | Cc1c(-c2c(N)c(C(N)=O)cc3nccnc23)ccnc1O [Compound 110, 7-Amino-8-(2-hydroxy-3-methylpyridin-4-yl)quinoxaline-6-carboxamide]
27 | 5.30 to 6.00 | 5.30 to 6.00 |  | Cc1ccc(O)c(C)c1-c1c(N)c(C(N)=O)nc2ccc(C(F)(F)F)cc12 [Compound 34]
28 | 6.30 to 7.30 | 6.00 to 6.30 |  | COc1cncc(C2=c3ncccc3=NC(C(N)=O)C2N)c1C (stereo not shown) [Compound 186]
29 | 6.30 to 7.30 | 6.30 to 7.30 |  | Cc1ccc(O)c(C)c1-c1c(N)c(C(N)=O)cc2cccnc12 [Compound 64, 7-Amino-8-(3-hydroxy-2,6-dimethylphenyl)quinoline-6-carboxamide]
30 | 5.30 to 6.00 |  | 5.30 to 6.00 | COc1ccnc2c(-c3cccc(O)c3C)c(N)c(C(N)=O)cc12 (atropisomer, axis not shown) [Compound 325]
31 | ≤ 5.30 |  | ≤ 5.30 | Cc1ccc(O)c(C)c1-c1c(N)c(C(N)=O)nc2ccc(Cl)cc12 (single isomer, unassigned) [Compound 54, (P)-3-amino-6-chloro-4-(3-hydroxy-2,6-dimethylphenyl)quinoline-2-carboxamide]
32 | 6.00 to 6.30 | ≤ 5.30 |  | COc1ncncc1-c1c(N)c(C(N)=O)nc2cccnc12 [Compound 231]
33 | 5.30 to 6.00 | ≤ 5.30 |  | Cc1c(O)cccc1-c1c(N)c(C(N)=O)cc2c1ncc(=O)n2C [Compound 219]
34 | > 7.30 | > 7.30 |  | Cc1c(O)cccc1-c1c(N)c(C(N)=O)cc2nccc(C#N)c12 [Compound 241]
35 | 5.30 to 6.00 |  | ≤ 5.30 | Cc1ccc(O)c(C)c1-c1c(N)c(C#N)cc2nccnc12 (atropisomer, axis not shown) [Compound 302]
36 | 6.30 to 7.30 |  | 6.00 to 6.30 | Cc1ccc(O)cc1-c1c(N)c(C(N)=O)cc2nccnc12 (atropisomer, axis not shown; (M)) [Compound 116, (M)-7-Amino-8-(5-hydroxy-2-methylphenyl)quinoxaline-6-carboxamide]
37 | 6.30 to 7.30 |  | 5.30 to 6.00 | Cc1ccc(O)c(C)c1-c1c(N)c(C(N)=O)nc2ccccc12 [Compound 22, 3-Amino-4-(3-hydroxy-2,6-dimethylphenyl)quinoline-2-carboxamide]
38 | ≤ 5.30 | ≤ 5.30 |  | Cc1c(-c2c3c(cc4nccnc24)C(=O)NC(C)(C)N3)ccc(F)c1O (atropisomer, axis not shown) [Compound 312]
39 | ≤ 5.30 | ≤ 5.30 |  | NC(=O)c1nc2cccnc2c(-c2cnc(N)cc2C(F)(F)F)c1N [Compound 183]
40 | ≤ 5.30 | ≤ 5.30 |  | Cc1ncccc1-c1c(N)c(C(N)=O)nc2cccnc12 [Compound 207]
41 | 6.30 to 7.30 |  | 5.30 to 6.00 | Cc1c(O)cccc1-c1c(N)c(C(N)=O)cc2ncccc12 [Compound 67, 6-Amino-5-(3-hydroxy-2-methylphenyl)quinoline-7-carboxamide]
42 | 6.30 to 7.30 | 5.30 to 6.00 |  | CCNc1cnc2c(-c3c(C)ccc(O)c3C)c(N)c(C(N)=O)cc2n1 [Compound 326]
43 | 5.30 to 6.00 | ≤ 5.30 |  | NC(=O)c1nc2cccnc2c(-c2cncnc2C(F)(F)F)c1N [Compound 253]
44 | > 7.30 |  | 6.30 to 7.30 | Cc1cnc2cc(C(N)=O)c(N)c(-c3c(C)ccc(O)c3C)c2n1 (atropisomer, axis not shown) [Compound 188]
45 | 6.00 to 6.30 | ≤ 5.30 |  | NC(=O)c1cc2nccnc2c(-c2cccc3cncn23)c1N [Compound 316]
46 | > 7.30 | 6.30 to 7.30 |  | Cc1ccc(O)c(C)c1-c1c(N)c(C(N)=O)cc2nc(C)c(C)nc12 [Compound 94, 7-Amino-8-(3-hydroxy-2,6-dimethylphenyl)-2,3-dimethylquinoxaline-6-carboxamide]
47 | 6.30 to 7.30 |  | 6.30 to 7.30 | COc1nc2c(-c3cccc(O)c3C)c(N)c(C(N)=O)cc2nc1C [Compound 173]
